# Patent publication US5039791A, “Peptide fragments of tissue plasminogen activator” (Monsanto Company, priority 1989, dated 1991)
# “Also recorded” adds a separate entry of the source. Where no end group is shown, it is not given here.
# Tested on: human umbilical vein endothelial cells
# Assay: Endothelial cell binding assay: binding of [125I]-tPA to endothelial cells
# Settings: for inhibition of binding of tPA to endothelial cells (FIG. 3): 15 μg/ml peptide, about 20 ng/ml [125I]-tPA, 4° C., 90 minutes; for dose response of inhibition of binding of tPA to endothelial cells (FIG. 4): several peptide concentrations
# Method: Peptides from FIG. 1 were examined for their ability to inhibit the binding of [^125 I]-tPA to human umbilical vein endothelial cells. Assays were performed as described under Materials and Methods, below, using a final peptide concentration of 15 μg/ml. All samples were assayed in duplicate. Bar height represents the result obtained for one duplicate point and the corresponding error bar represents the result obtained for the other. Results are shown in percent inhibition of binding.
# Assays examining the binding of [^125 I]-tPA to endothelial cells were performed by a conventional method essentially as described by Hajjar et al., J. Clin. Invest. 80, 1712-1719 (1987), and Beebe, Thromb. Res. 46, 241-254 (1987). Briefly, cells were grown to confluence in 24-well dishes using MCDB107 growth medium supplemented with 180 μg/ml heparin, 30 μg/ml ECGS, 100 μg/ml gentamicin and 10% fetal bovine serum. Immediately prior to assay, plates were chilled to 4° C. and all wells were aspirated. Cells were washed 3 times with binding buffer (PBS, pH 7.2, 5.0 mg/ml BSA, 10 mM glucose, 0.01% Tween 80). Five hundred μl of buffer containing approximately 20 ng/ml of [^125 I]-tPA and a test sample of peptide was then added. Incubations proceeded at 4° C. for 90 minutes. At the end of the incubation time, cells were washed rapidly 4 times with 500 μl aliquots of binding buffer. Cells were separated from the plates using 3% sodium dodecylsulfate (SDS) and the amount of radioactivity present was determined. Nonspecific binding was determined by carrying out incubations in the presence of an excess (2.0 μg/ml) of unlabeled tPA.
# The peptides shown in Table 1 were examined for their effect on the binding of tPA to cultured human umbilical vein endothelial cells. […] All points were run in duplicate and nonspecific binding was subtracted in each case.
Substance,inhibition of binding of tPA to endothelial cells (FIG. 3),dose response of inhibition of binding of tPA to endothelial cells (FIG. 4)
"LGKHNYCRNPDGDAKPWCHVLKNRR-amide (LGKHNYCRNPDGDAKPWCHVLKNRR-NH2; cysteine pairing not given here) [Peptide 166, 25 amino acid synthetic peptide amide fragment of native human tPA]",effective at inhibiting the binding of tPA to cells,
"NPDRDSKPWCYVFKAGKYSSEFCST-amide (NPDRDSKPWCYVFKAGKYSSEFCST-NH2; cysteine pairing not given here) [Peptide 158, 25 amino acid synthetic peptide amide fragment of native human tPA]",inhibited the binding of tPA to endothelial cells; also recorded: more effective at inhibiting endothelial cell binding relative to the other active peptides,concentration dependent manner
"VPVKSCSEPRCFNGGTCQQALYFSD-amide (VPVKSCSEPRCFNGGTCQQALYFSD-NH2; cysteine pairing not given here) [Peptide 148, 25 amino acid synthetic peptide amide fragment of native human tPA]",inhibited the binding of tPA to endothelial cells,concentration dependent manner
